Reference: patent publication US8962652B2, “Derivatives of purine or deazapurine useful for the treatment of (inter alia) viral infections” (Gilead Sciences, Inc., priority 2009, dated 2015)

System: human Peripheral Blood Mononuclear Cell (PMBC)
Assay: PBMC assay: cytokine (IFN-alpha) stimulation at 24 hours
Assay type: cell-based
Conditions: minimum concentration for induction of IFN-alpha = 3-fold over background
Method: Assays were conducted to determine cytokine stimulation at 24 hours from human Peripheral Blood Mononuclear Cell (PMBC) using the compounds of the present invention. The assays were run in duplicate, with 8-point, half-log dilution curves. The compounds of the present invention were diluted from 10 mM DMSO solution. Cell supernatants are assayed directly for IFNa and 1:10 dilution for TNFa. The assays were performed in a similar fashion as described in Bioorg. Med. Chem. Lett. 16, 4559, (2006). Specifically, cryo-preserved PBMCs were thawed and seeded 96 well plates with 750,000 cells/well in 190 μL/well cell media. The PBMCs were then incubated for 1 hour at 37° C. at […]. Then, the compounds of the present invention were added in 10 μL cell media at 8 point, half-log dilution titration. The plates were incubated at 37° C. and 5% CO2 for 24 hours and then spinned at 1200 rpm for 10 min, which was followed by collecting supernatant and storing the same at −80° C. Cytokine secretion was assayed with Luminex and Upstate multi-plex kits, using a Luminex analysis instrument. IFN MEC value for a compound was the minimum concentration at which IFN-a production stimulated by the compound reached three fold above background, as determined using the assay method above.

Row | Structure (SMILES) | minimal effective concentration (read-out: MEC) [µM] | MEC
1 | COCCOc1cc2c([nH]c(=O)n2Cc2ccc(-c3ccc(CN4CCCC4)cc3)cc2)c(N)n1 [AX] | 0.001 to 0.009 | 
2 | CCCCOc1nc(N)c2[nH]c(=O)n(Cc3cccc(-c4ccccc4CN4CCCC4)c3)c2n1 [A] |  | d (d: 100 nM-1000 nM)
